Assay: Rate of degradation/transformation of compounds in solution (half-life for the transformation to the active moiety) at pH 2 and 7
Assay type: physicochemical
Conditions: water solution
Protocol: Rate of degradation/transformation of compounds
Half-life (mintues) for the
transformation to the active moiety
Also at neutral pH-values the degradation reaction proceeds rapidly, e.g. at pH=7 the half-life of degradation is between 10 minutes and 65 hours while at higher pH-values the stability in solution for most compounds is much better. The stability profile is similar in solid phase. The degradation is catalyzed by acid reacting substances. The acid labile compounds are stabilized in mixtures with alkaline reacting substances.

Row | Compound | half-life (at pH = 2) [min] | half-life (at pH = 7) [min]
1 | COC(=O)c1cc2nc([S+]([O-])Cc3ncccc3C)[nH]c2cc1C (centres unmarked) | 11 | 150
2 | COc1ccnc(C[S+]([O-])c2nc3cc(C(F)(F)F)ccc3[nH]2)c1C (centres unmarked) | 2 | 8.8
3 | COc1ccnc(C[S+]([O-])c2nc3cc(C(F)(F)F)ccc3[nH]2)c1 (centres unmarked) | 1.9 | 122
4 | CCc1ccc2[nH]c([S+]([O-])Cc3nc4ccccc4n3C)nc2c1 (centres unmarked) | 33 | –
5 | Cc1cnc(C[S+]([O-])c2nc3cc(C)ccc3[nH]2)c(C)c1 (centres unmarked) | 5.4 | 1700
6 | CCc1cnc(C[S+]([O-])c2nc3cc(OC)ccc3[nH]2)cc1Oc1ccccc1 (centres unmarked) | 3.7 | 1620

From patent US4853230A, “Pharmaceutical formulations of acid labile substances for oral use” (priority 1986, dated 1989)
